Columns and labels:
[1] = system: breast adenocarcinoma (MCF7) cells; experiment: Antiproliferative MTT assay, MCF-7; type: cell-based, human; conditions: for IC50: Homo sapiens, MCF7, 72 h incubation, MTT, mean ± SD
Method in brief: (§1)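 3000 cells/well (tumour) or 5000 (fibroblasts), DMEM/MEM + 10% FBS, 37 °C. Cpd 0.01–100 µM, 72 h. MTT; IC50 via linear regression; n = 4 × 2 expts.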

[2] = system: pancreatic ductal adenocarcinoma (CFPAC-1) cells; experiment: Antiproliferative MTT assay, CFPAC-1; type: cell-based, human; conditions: for IC50: 72 h incubation, MTT, mean ± SD
Method in brief: as §1

[3] = system: colorectal carcinoma (HT-29) cells; experiment: Antiproliferative MTT assay, HT-29; type: cell-based, human; conditions: Homo sapiens, HT-29, 72 h, 72 h incubation, MTT; mean ± SD
Method in brief: as §1

[4] = system: hepatocellular carcinoma (HepG2) cells; experiment: Antiproliferative MTT assay, HepG2; type: cell-based, human; conditions: for IC50: Homo sapiens, HepG2, 72 h, 72 h incubation, MTT, mean ± SD
Method in brief: as §1

[5] = system: P-glycoprotein (human MDR1); experiment: MDCKII-MDR1 permeability assay; type: in vitro ADME, canine cells with over-expressed human MDR1 gene; conditions: dog, MDCK-MDR1; for Papp A→B at 60 min, 10 µM / Papp B→A at 60 min, 10 µM: 37 °C; for efflux ratio at 60 min, 10 µM: <2 no efflux, >2 active efflux
Method in brief: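 Bidirectional transport across MDCKII cells overexpressing human MDR1, compounds 10 µM (1% DMSO) for 60 min at 37 °C, with and without 2 µM elacridar. Monolayer integrity checked by Lucifer yellow; compound concentrations quantified by LC-MS/MS (MRM).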

[6] = Hydrolytic stability in aqueous buffer (UV/Vis); type: physicochemical; conditions: phosphate buffer/DMSO 99:1, pH 7.4, 1 × 10⁻⁴ mol dm⁻³, UV/Vis spectra over 24 h
Source text: Solvents and chemicals, including starting purines and purine bioisosters 1–5, as well as para-substituted 2-phenyloxiranes 11–15 and phenacyl bromide 21–25, were purchased from Sigma-Aldrich (St. Louis, MO, USA), Alfa Aesar (Haverhill, MA, USA), and Fisher Scientific International (Pittsburgh, PA, USA). The progress of all reactions was monitored by thin layer chromatography on pre-coated Merck (Darmstadt, Germany) silica gel plates 60F254. The synthesized compounds were purified via column chromatography using Fluka (Buchs, Switzerland) silica gel (0.063−0.2 mm) and the appropriate solvent. All NMR spectra were recorded using a Bruker 300, 400, and 600 MHz NMR spectrometer (Bruker Biospin, Rheinstetten, Germany) in deuterated DMSO solutions, with TMS as the internal standard. The melting points of all newly synthesized compounds were determined using a Koffler (Reichert, Vienna) hot stage microscope. The ^1H (δ/ppm) and ^13C NMR (δ/ppm) spectra of compounds 26a,b–49a,b can be found in the Supporting Information (Figures S1–S48). The purity of all newly synthesized compounds was determined by elemental analysis and the elemental analysis results are within 0.5% of the theoretical values. The UV/Vis absorption spectra of compounds 40a, 45a, and 49b were measured at a concentration of 1 × 10⁻⁴ mol dm⁻³ in phosphate buffer and DMSO (99:1, v/v) at pH 7.4 using a Varian Cary 50 spectrophotometer in double-beam mode at 25 °C.
Selected 6-chloropurine (40a), 4-chloropyrrolo[2,3-d]pyrimidine (45a), and 4-chloroimidazo[4,5-c]pyridine (49b) with significant antiproliferative activity were examined for hydrolytic stability in an aqueous buffer solution.
2. UV/Vis absorption spectra of selected compounds
Figure S49. UV/Vis absorption spectra of compounds 40a (a), 45a (b), and 49b (c) recorded in phosphate buffer with 1% DMSO (99:1, v/v) at pH 7.4 (c = 1 × 10⁻⁴ mol dm⁻³). Spectra were measured immediately after sample preparation and after 24 hours to evaluate spectral stability over time.
(1 picture or pasted object on this page, not shown here)

Compound | IC50 [1] [µM] | SI (MCF-7) ([1]; SI = [IC50 HFF]/[IC50 MCF-7]) | IC50 [2] [µM] | IC50 ([2]; Homo sapiens, CFPAC-1, 72 h) [µM] | SI (CFPAC-1) ([2]; SI = [IC50 HFF]/[IC50 CFPAC-1]) | IC50 [3] [µM] | IC50 [4] [µM] | Papp A→B at 60 min, 10 µM [5] [×10⁻⁶ cm/s] | Papp B→A at 60 min, 10 µM [5] [×10⁻⁶ cm/s] | efflux ratio at 60 min, 10 µM [5] | hydrolytic stability [6] | SI (HepG2) ([4]; SI = [IC50 HFF]/[IC50 HepG2]) | Papp at 60 min, 10 µM ([5]; permeability class) [×10⁻⁶ cm/s]
OCC(c1ccc(C(F)(F)F)cc1)n1cc(Cn2ccc3c(Cl)ncnc32)nn1 (stereo not drawn) [Compound 45a, 4-Chloro-7-((1-(2-hydroxy-1-(4-(trifluoromethyl)phenyl)ethyl)-1H-1,2,3-triazol-4-yl)methyl)-7H-pyrrolo[2,3-d]pyrimidine] | 0.5 ± 0.1 | 40 | 1 ± 0.7 | 1 to 8 | 20.0 | 26 ± 1.2 | 28 ± 0.5 | 7.6 | 66.4 | 8.8 | hydrolytically stable |  | 
OC(Cn1cc(Cn2cnc3c(Cl)nccc32)nn1)c1ccc(Br)cc1 (stereo not drawn) [Compound 49b, 4-Chloro-1-((1-(2-hydroxy-2-(4-bromophenyl)ethyl)-1H-1,2,3-triazol-4-yl)methyl)-1H-imidazo[4,5-c]pyridine] | 46 |  |  | 21 ± 0.7 |  | 10 ± 3.2 | 4 | ≤ 2 | 36.9 | 23.3 | hydrolytically stable | 5.3 | ≤ 2

From PMC11940194, “Synthesis, Antiproliferative Activity, and ADME Profiling of Novel Racemic and Optically Pure Aryl-Substituted Purines and Purine Bioisosteres” (Biomolecules, 2025)
